We go through 2 compounds from patent publication US9464326B2, “Total and phosphorylated IL-1 receptor-associated kinase-1 and IL-1 receptor-associated kinase-4 as a biomarker for cancer progression and chemotherapy resistance” (University of Maryland, Baltimore, priority 2012, dated 2016).

Where two headings read alike, the source gives them in different places.

For one experiment, the system named is patient T-ALL cells. As to the kind of experiment: Western blot of patient T-ALL samples from treated NSG mice. The class given is in vivo. As to the method: CCRF-CEM (2×10^6) cells were injected intravenously (i.v.) into female NOD.Cg-Prkdc^scid Il2rg^tm1WJl/SzJ IL2RG (NSG) mice (Jackson Laboratories, Bar Harbor, Me.). […] In some experiments mice were injected i.v. with TLR1-TLR2 ligand (2.5 μg) two days after injecting cells. In other experiments mice were injected intraperitoneally (i.p.) with IRAK-1,-4 inhibitor (10 mg/kg) 3, 6, and 9 days (CCRF-CEM cells) or 7, 10, and 13 days (patient T-ALL cells) after detecting CD7^+ T-ALL cells in circulation. The numbers of T-ALL cells in the bone marrow, spleen, liver, and in circulation were determined by staining cells with anti-human CD7 and/or CD5. To compare T-ALL numbers between groups, 10 μl of calibration microbeads (BD Pharmingen) were added to 50 μl of blood (or marrow or spleen suspensions) and the flow cytometry instrument gates were set to count a constant number of beads.
The levels of p-mTOR and p-p65 were also examined in patient T-ALL samples obtained from mice treated with IRAK-1,-4 inhibitor or DMSO.

In the next experiment the test system is patient T-ALL samples. As to the kind of experiment: SA-β-gal activity in patient T-ALL samples from treated NSG mice. It counts as in vivo. The following applies: p<0.05, FIG. 15C. As to the method: Analysis of senescence-associated β-galactosidase (SA-β-gal) activity was performed using the 96-Well Cellular Senescence Assay Kit (Cell Biolabs, San Diego, Calif.) as per the manufacturer's protocol. In brief, cells were washed with PBS, lysed with cell lysis buffer, and incubated at 37° C. with SA-β-gal substrate for 1 hour. A quantitative Cellular Senescence Assay Kit (SA-β-gal, Fluorometric) (Cell Biolabs, San Diego, Calif.) was used for more quantitative measurement of SA-β-gal activity by flow cytometry. Briefly, control and treated CCRF-CEM cells were incubated with 1× cell pretreatment solution in culture medium for 2 hrs, and the fluorogenic substrate was then directly added into the culture. After 4 hrs, the cells were washed and analyzed by flow cytometry.
CCRF-CEM (2×10^6) cells were injected intravenously (i.v.) into female NOD.Cg-Prkdc^scid Il2rg^tm1WJl/SzJ IL2RG (NSG) mice (Jackson Laboratories, Bar Harbor, Me.). […] In some experiments mice were injected i.v. with TLR1-TLR2 ligand (2.5 μg) two days after injecting cells. […] The numbers of T-ALL cells in the bone marrow, spleen, liver, and in circulation were determined by staining cells with anti-human CD7 and/or CD5. […]

The next experiment concerns the target IRAK-1 (Homo sapiens, UniProt P51617). The following applies: supplier (EMD Millipore) description; cited from earlier work.
Experiment [1] concerns panel of 27 other kinases. The following applies: supplier (EMD Millipore) description, cited from earlier work.
The next experiment deals with CCRF-CEM T-ALL cells. As to the kind of experiment: Antibody (protein) array of apoptosis-related proteins. The following applies: IRAK-1,-4 inhibitor vs DMSO, 72 hours, normalised to GAPDH.
Another experiment has as its system Molt-4. As to the kind of experiment: Proliferation (3H-thymidine) of Molt-4. The settings on record: 3H-thymidine uptake, 72 h. It counts as cell-based, human. From the text:
(§1) CCRF-CEM, CEM/C1, CEM/C2, CEM-C7, Jurkat, Loucy, Molt-4, HSB-2, SUP-T1, Hut 78, HH, Hut 102, MO, and H9 T-leukemia and T-lymphoma cell lines were purchased from the American Type Culture Collection (Manassas, Va., USA). All of the cell lines were initially expanded and cryopreserved within one month of receipt. Cells were typically used for 6 months at which time a fresh vial of cryopreserved cells was used. Total T cells from healthy donors were isolated via negative selection followed by positive selection using a CD3+ selection kit (Invitrogen, Carlsbad, Calif.). T cells were isolated from patients with T-ALL bone marrow or peripheral blood samples containing more than 70% leukemia cells using a CD2+ isolation kit (STEMCELL Technologies, Vancouver, Canada). All tissues were collected under institutional IRB-approved protocols and all participants gave written informed assent/consent. For in vitro experiments, T-ALL cells were cultured in AIM-V medium supplemented with 20% human AB serum in the presence of recombinant human stem cell factor (50 ng/mL; Amgen, Thousand Oaks, Calif.), insulin (20 nM; Sigma-Aldrich, St Louis, Mo., USA) and IL-7 (50 ng/mL; R&D Systems, Minneapolis, Minn., USA). […]
(§2) Cells were cultured in a 96-well plate (Corning Costar, Corning, N.Y., USA) with various concentrations of TLR ligands 1-9, starting at 10 μg/ml, in a final volume of 200 ul. […] After this time point, cells were harvested with a Packard Filter-Mate-96 cell harvester (Perkin Elmer, Waltham, Mass., USA) and counted on Packard Top Count-NXT (Perkin Elmer, Waltham, Mass., USA). Results were expressed as average counts per minute (cpm). […] Forty-eight hours later, proliferation (±SD) was determined by ^3H-thymidine incorporation. Alternatively, apoptosis was measured by flow cytometry after staining cells with Annexin-V (BD Pharmingen, San Diego, Calif., USA) and propidium iodide (Sigma). Cell number was counted under microscopy by staining cells with trypan blue. […]

The next experiment concerns Hut-78. As to the kind of experiment: Proliferation (3H-thymidine) of Hut-78. The settings on record: 3H-thymidine uptake, 72 h. It counts as cell-based, human.
Description: as §1, §2

The test system of another experiment is MO. As to the kind of experiment: Proliferation (3H-thymidine) of MO. The settings on record: 3H-thymidine uptake, 72 h. The class given is cell-based, human.
Description: as §1, §2

Chain of IRAK-1 (P51617 whole entry): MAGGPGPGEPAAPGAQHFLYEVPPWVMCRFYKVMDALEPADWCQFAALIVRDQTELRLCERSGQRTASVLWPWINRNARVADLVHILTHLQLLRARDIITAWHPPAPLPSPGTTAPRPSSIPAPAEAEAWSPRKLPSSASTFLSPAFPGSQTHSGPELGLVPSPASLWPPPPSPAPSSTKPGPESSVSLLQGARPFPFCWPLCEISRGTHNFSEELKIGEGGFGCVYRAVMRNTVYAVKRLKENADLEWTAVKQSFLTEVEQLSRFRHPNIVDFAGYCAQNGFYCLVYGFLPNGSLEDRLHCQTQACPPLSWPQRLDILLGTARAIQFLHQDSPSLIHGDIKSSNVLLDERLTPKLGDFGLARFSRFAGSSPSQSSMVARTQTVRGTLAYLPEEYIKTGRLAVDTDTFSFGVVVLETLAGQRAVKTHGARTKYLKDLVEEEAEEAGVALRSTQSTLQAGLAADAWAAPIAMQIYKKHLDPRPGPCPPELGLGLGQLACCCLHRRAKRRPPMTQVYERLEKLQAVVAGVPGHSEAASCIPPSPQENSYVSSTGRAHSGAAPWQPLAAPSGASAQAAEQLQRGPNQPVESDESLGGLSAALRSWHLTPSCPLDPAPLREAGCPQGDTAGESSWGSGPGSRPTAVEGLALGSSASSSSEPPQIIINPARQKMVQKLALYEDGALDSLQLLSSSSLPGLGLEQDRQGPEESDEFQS
Description for CCRF-CEM T-ALL cells: We also used a protein array from Full Moon Biosystems (Sunnyvale, Calif., USA). For these experiments, purified T-ALL cells were incubated for 48 hours in the presence of IRAK-1,-4 inhibitor (5 μM) or an equal volume of vehicle (DMSO). Then, total protein was extracted, and the levels of various proteins were measured according to the manufacturer's protocol.

For `O=C(Nc1nc2ccccc2n1CCN1CCOCC1)c1cccc([N+](=O)[O-])c1` [IRAK-1,-4 inhibitor], the p-mTOR levels entry with patient T-ALL cells (patient sample #810 (barely detectable p-IRAK-4), treated in vivo) is “did not show changes”. Also, the “reduction of p-p65 levels” value in the experiment with patient T-ALL cells (patient samples #825 and #828 from treated NSG mice) is listed as “two-fold”. In addition, in the experiment with patient T-ALL samples, the SA-β-gal activity entry is on record as “increased SA-β-gal activity”. At IRAK-1, the “inhibition of IRAK-1” value is reported as “selectively inhibits”. Besides, the “activity against a panel of 27 other kinases” value in experiment [1] is “little to no activity”. The “activity against a panel of 27 other kinases” value in experiment [1] (listed as IRAK.-1,-4 inhibitor) is recorded as “little activity”. Moreover, in the experiment on CCRF-CEM T-ALL cells, the “Fold Change: AFX(Ab-197)” value is −2.62 fold, the “Fold Change: AFX(Phospho-Ser 97)” value is −2.03 fold, the “Fold Change: BAD(Ab-112)” value is given as −1.76 fold and the “Fold Change: BAD(Phospho-Ser112)” value is recorded as −2.44 fold. Besides, in the experiment with CCRF-CEM T-ALL cells, the “Fold Change: BCL-XL(Phospho-Ser62)” value is −2.42 fold, the “Fold Change: CDC2(Phospho-Tyr15)” value was −2.33 fold, the “Fold Change: FKHR(Ab-319)” value is on record as −2.54 fold and the “Fold Change: FKHRL1(Ab-253)” value was −2.36 fold. Moreover, in the experiment on CCRF-CEM T-ALL cells, the “Fold Change: FKHRL1(Phospho-Ser253)” value is −2.53 fold, the “Fold Change: GSK3 alpha(Phospho-Ser21)” value is given as −2.13 fold, the “Fold Change: HSP27(Phospho-Ser15)” value was −2.20 fold and the “Fold Change: IKB-alpha(Ab-32/36)” value was −1.96 fold. In the experiment with CCRF-CEM T-ALL cells, the “Fold Change: IKB-alpha(Phospho-Ser32/Phospho-Ser36)” value is given as −2.95 fold, the “Fold Change: IRS-1(Phospho-Ser639)” value is on record as −2.37 fold, the “Fold Change: JAK2(Phospho-Tyr221)” value is on record as −2.05 fold and the “Fold Change: NFKB-p65(Ab-435)” value was −1.39 fold. Moreover, in the experiment on CCRF-CEM T-ALL cells, the “Fold Change: NFKB-p65(Phospho-Thr435)” value is on record as −2.39 fold, the “Fold Change: NFKB-p100/p52(Phospho-Ser869)” value is given as −2.50 fold, the “Fold Change: NFKB-p105/p50(Phospho-Ser337)” value is −4.06 fold and the “Fold Change: PTEN(Phospho-Ser380)” value came to 1.35 fold. Besides, in the experiment on CCRF-CEM T-ALL cells, the “Fold Change: Raf1(Phospho-Ser338)” value is reported as −2.46 fold, the “Fold Change: STAT1(Phospho-Ser727)” value is reported as −2.17 fold, the “Fold Change: STAT3(Phospho-Ser727)” value was −2.11 fold and the “Fold Change: p44/42 MAP Kinase(Phospho-Tyr204)” value is −2.24 fold. Moreover, in the experiment on CCRF-CEM T-ALL cells, the “Fold Change: p53(Ab-46)” value is given as −1.39 fold and the “Fold Change: p53(Phospho-Ser46)” value is listed as −2.27 fold.

Turning to “tripalmitoyl-S-(bis(palmitoyloxy)propyl)-Cys-Ser-(Lys)3-Lys [Pam3Cysk4]”, the “Proliferative effects of TLR ligands” value in the experiment on Molt-4, with Hut-78 and in the experiment on MO was “∘” in each case.
